According to ChEMBL document CHEMBL1131027, “Enhancement of oral absorption in selective 5-HT1D receptor agonists: fluorinated 3-[3-(piperidin-1-yl)propyl]indoles” (J Med Chem, 1998):

Legend:
[1] = tested on: Rattus norvegicus; assay: Concentration of compound in rat plasma obtained from hepatic portal vein(hpv) blood samples following peroral administration at 3 mg/kg.; format: functional, organism-based; parameters: dose 3 mg/kg
[2] = target: Serotonin 1 receptors; 5-HT1B & 5-HT1D (Homo sapiens) (UniProt P28222+P28221); assay: Relative binding to serotonin 5-HT1D and 5-HT1B receptors; format: protein assay
[3] = The ionization constant (pKa) for the compound measured potentiometrically
[4] = target: T1, 5-hydroxytryptamine receptor 1D (Homo sapiens, UniProt P28221); assay: Displacement of [3H]5-HT from human 5-hydroxytryptamine 1D receptor expressed in CHO cells; format: cell-based
T1 sequence (P28221 whole entry): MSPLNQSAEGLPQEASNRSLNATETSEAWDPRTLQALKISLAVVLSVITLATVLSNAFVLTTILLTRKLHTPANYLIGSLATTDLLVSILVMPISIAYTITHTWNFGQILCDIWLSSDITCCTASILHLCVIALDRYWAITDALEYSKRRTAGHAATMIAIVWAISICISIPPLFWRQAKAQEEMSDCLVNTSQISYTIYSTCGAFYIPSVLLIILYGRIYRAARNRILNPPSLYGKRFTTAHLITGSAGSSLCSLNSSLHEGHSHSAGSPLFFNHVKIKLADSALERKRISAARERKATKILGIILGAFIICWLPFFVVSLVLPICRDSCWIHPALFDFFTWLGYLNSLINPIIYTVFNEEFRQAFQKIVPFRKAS

[5] = tested on: Rattus norvegicus; assay: Concentration of compound in rat plasma obtained from cardiac (systemic) blood samples following peroral administration at 3 mg/kg.; format: functional, organism-based; parameters: dose 3 mg/kg
[6] = target: T1, 5-hydroxytryptamine receptor 1D; assay: Agonist induced [35S]GTP-gamma-S, binding in CHO cells expressing 5-HT 1d receptor; format: functional, cell-based
[7] = target: T1, 5-hydroxytryptamine receptor 1D; assay: Percent efficacy relative to 5-HT treatment of CHO cells expressing 5-HT 1d receptor; format: functional, cell-based

Row | Structure (SMILES) | Concentration [1] [ng/mL] | Selectivity [2] | pKa [3] | IC50 [4] [nM] | Concentration [5] [ng/mL] | EC50 [6] [nM] | Efficacy [7] [%]
1 | CN(Cc1ccccc1)[C@@H]1CCN(CCCc2c[nH]c3ccc(-n4cnnc4)cc23)C[C@@H]1F | 216 | 18 | 8 | 13 | 2 | – | –
2 | Fc1cccc(CCC2(F)CCN(CCCc3c[nH]c4ccc(-n5cnnc5)cc34)CC2)c1 | – | 30 | – | 0.75 | – | 5.1 | 71
3 | Fc1cccc(CCN2CCN(CC(F)Cc3c[nH]c4ccc(-n5cnnc5)cc34)CC2)c1 (stereo unspecified) | – | 324 | – | 3.7 | – | 4.4 | 98
4 | Fc1cccc(CCN2CCN(CCCc3c[nH]c4ccc(-n5cnnc5)cc34)CC2)c1 | – | 125 | – | – | – | – | –
5 | FC1(Cc2ccccc2)CCN(CCCc2c[nH]c3ccc(-n4cnnc4)cc23)CC1 | 570 | 16 | 8.8 | 1 | 52 | 0.5 | 58
6 | c1ccc(CC2CCN(CCCc3c[nH]c4ccc(-n5cnnc5)cc34)CC2)cc1 | 25 | 57 | 9.7 | 0.35 | < 2 | 0.6 | 62
7 | OC[C@H](NC1CCN(CCCc2c[nH]c3ccc(-n4cnnc4)cc23)CC1)c1ccc(F)cc1 | < 2 | 206 | – | – | < 2 | – | 104
8 | CN(Cc1ccccc1)C1CCN(CC(F)Cc2c[nH]c3ccc(-n4cnnc4)cc23)CC1 (stereo unspecified) | 57 | 230 | – | 5.4 | 2 | 18 | 104
9 | FC(Cc1c[nH]c2ccc(-n3cnnc3)cc12)CN1CCC(Cc2ccccc2)CC1 (stereo unspecified) | 781 | 65 | 8.7 | 0.95 | 196 | 11 | 61
10 | CN(Cc1ccccc1)[C@H]1CCN(CCCc2c[nH]c3ccc(-n4cnnc4)cc23)C[C@H]1F | – | 6 | – | 2.2 | – | – | –
11 | c1ccc(CN2CCN(CCCc3c[nH]c4ccc(-n5cnnc5)cc34)CC2)cc1 | 178 | 40 | 8.2 | – | 42 | – | –
12 | OC[C@H](NC1CCN(CC(F)Cc2c[nH]c3ccc(-n4cnnc4)cc23)CC1)c1ccc(F)cc1 (stereo partly specified) | 5 | 225 | – | 1.4 | < 1 | 1.7 | 95
13 | CN(Cc1ccccc1)C1CCN(CCCc2c[nH]c3ccc(-n4cnnc4)cc23)CC1 | 4 | 66 | – | – | < 1 | – | 94
